Experimental data reported in patent publication US12605354B2, “Azelaic acid esters in the treatment or prevention of dyslipidemia and associated conditions” (NEW FRONTIER LABS, LLC, priority 2020, dated 2026).
“Also recorded” adds a separate entry of the source. Marks after values point to notes of the source that are not given here.

How the values were obtained:
Type in all cases: in vivo, human
[1] = test system: overweight to obese males; experiment: 21-day oral DEA study: fasting plasma glucose and OGTT glucose; conditions: for AUC Glucose: 180-minute OGTT, in mg·min/dL (unit assumed); for AUC Glucose / Fasting plasma glucose / Glucose 180 min: D21 post-treatment, 21 daily oral doses of 1 mg/kg, mean; for Glucose 180 min: OGTT
Description: (§1) Seventeen subjects were recruited by sampling a large population at risk for T2D (according to convenience sample; a statistical method of drawing representative data) to measure the changes in glucose, lipid and insulin measurements after an OGTT after the subjects had been treated for 21 days.
(§2) The subjects were overweight to obese males with body mass indices (BMIs) ranging from 27.2 to 43.6 kg/m^2, glycated hemoglobin A1c (HbA1c) of 5.0-6.2% and insulin levels of 8.8-52 μU/mL. The study was conducted by Clinical Trials of Texas, Inc. in San Antonio, TX. The cohort represented a population at risk for the development of T2D. The study was restricted to male participants to control for the variability of insulin sensitivity associated with the menstrual cycle. The subjects received 21 daily oral doses (“q1d”) of 1 mg/kg DEA. An OGTT, in which 75 grams of glucose in a total volume of 300 mL was administered orally to subjects, was performed on Day 0 and again on Day 21 and glucose measurements performed at −30, −5 and 0 min, insulin measurements at −30 and 0 min, and both glucose measurements and insulin measurements at 30, 60, 90, 120 and 180 minutes, where “0 min” is the time at which the glucose solution was administered. The 180-minute time point was selected to gain an early insight into the possible signal of drug action. Blood lipid levels (triglycerides, cholesterol, HDL, non-cholesterol HDL and LDL) were measured before the onset of treatment on Day 0 and again on Day 21. The error of the assays was <5% [36].
(§3) The results of the various marker measurements at Day 0 and Day 21 were compared using both the paired Students T-test and the Wilcoxon signed rank test. The results of both calculations are provided; the p-value from the paired Student T-test first, followed by the p-value from the Wilcoxon signed rank test. Generalized Estimating Equations and bootstrapping were used to verify the results generated with other methods. Fasting glucose was calculated as the average of the −30, −5, and 0-minute measurements and fasting insulin was calculated as the average of the −30- and 0-minute measurements. Spearman's correlation coefficient was calculated for the relationship between A1c and pre-treatment fasting plasma glucose versus post-treatment fasting plasma glucose. Area under the curve (AUC) was calculated over the 180-minute time span of the OGTT. All analyses were performed using the open language engine R 3.4.4. Statistical significance was at the α=0.05 level.
For measuring the effect of DEA on blood glucose, an assessment of fasting plasma glucose levels was relied upon, which is a measure that is commonly used as an indication that a subject may be diabetic. A level under 100 mg/dL is considered clinically normal while the range between 100 and 125 mg/dL is indicative of prediabetes. At the threshold of 100 mg/dL the human body begins to have a compromised insulin response to glucose shock. The OGTT was used, in which a standard dose of glucose was ingested by mouth, and blood samples were taken at specified time points after ingestion. Plasma blood glucose measurements were then obtained as a means of understanding the pharmacodynamic effects of DEA.

[2] = test system: overweight to obese males; experiment: 21-day oral DEA study: fasting insulin and OGTT insulin; conditions: for AUC insulin: 180-minute OGTT, in µU·min/mL (unit assumed); for AUC insulin / Fasting insulin: D21 post-treatment, 21 daily oral doses of 1 mg/kg, mean
Description: as §1, §2, §3

[3] = test system: overweight to obese males; experiment: 21-day oral DEA study: tolerability, adverse effects
Protocol: as §2

[4] = test system: subject, with diet induced insulin resistance and diabetes; experiment: Example 2: plasma glucose in OGTT after buccal or gastric delivery of DEA; conditions: for plasma glucose levels during OGTT: 0, 1, 2, 4 hours, FIG. 16
Description: Described in this example is an evaluation of the effects of alkyl azelates, such as DEA, on certain markers of insulin resistance and dyslipidemia, namely, blood plasma glucose, insulin levels and/or lipid levels, when administered either for buccal delivery or for gastric delivery in a subject, with diet induced insulin resistance and diabetes with a BMI of approximately 27.
Diethyl azelate was synthesized from azelaic acid and ethyl alcohol sing the standard acid-catalyzed esterification followed by fractional distillation to produce DEA to 99% purity as determined by chromatography-mass spectrometry (GC-MS). The 99% distilled DEA distillation product was administered in unformulated, unencapsulated, etc. form (i.e., “as is”) for buccal delivery as indicated below.
For gastric delivery, the 99% DEA distillation product was placed in a hard gelatin capsule, size 00 (PureCaps USA, Philmont, NY) and administered for gastric delivery by swallowing with a drink of water.
Fasting blood glucose levels were measured using UniStrip blood glucose test strips (UniStrip Technologies LLC, Charlotte, NC) and OneTouchUltra 2 blood glucose meter (LifeScan OneTouch, Tampa. FL).

CCOC(=O)CCCCCCCC(=O)OCC [DEA, diethyl azelate]
average decrease of fasting glucose ([1]; 8 subjects with a fasting glucose≥100 mg/dL, Day 21 vs Day 0, p=0.033, p=0.06): 6.06 mg/dL | AUC Glucose ([1]; All (n = 17), D0 25826): 25356 | AUC Glucose ([1]; FPG <100 mg/dL (n = 8), D0 23530): 24475 | AUC Glucose ([1]; FPG >100 mg/dL (n = 9), D0 27867): 26138 | AUC Glucose ([1]; High A1c (n = 9), D0 27313): 25889 | AUC Glucose ([1]; Low A1c (n = 8), D0 24153): 24756 | Fasting plasma glucose ([1]; All (n = 17), D0 101.662): 99.732 mg/dL | Fasting plasma glucose ([1]; FPG <100 mg/dL (n = 8), D0 92.769): 97.25 mg/dL | Fasting plasma glucose ([1]; FPG >100 mg/dL (n = 9), D0 109.567, P < 0.01): 101.939** mg/dL | Fasting plasma glucose ([1]; High A1c (n = 9), D0 105.156): 100.261 mg/dL | Fasting plasma glucose ([1]; Low A1c (n = 8), D0 97.731): 99.138 mg/dL | Glucose 180 min ([1]; All (n = 17), D0 100.315): 91.579 mg/dL | Glucose 180 min ([1]; FPG <100 mg/dL (n = 8), D0 89.919): 86.494 mg/dL | Glucose 180 min ([1]; FPG >100 mg/dL (n = 9), D0 109.556): 96.1 mg/dL | Glucose 180 min ([1]; High A1c (n = 9), D0 108.978): 95.128 mg/dL | Glucose 180 min ([1]; Low A1c (n = 8), D0 90.569): 87.588 mg/dL | increase of post-treatment fasting glucose ([1]; entire cohort of 17 subjects, Day 21 vs Day 0, insignificant (p=0.962; p=0.96)): 0.11 mg/dL | average decrease of glucose at 180 minutes ([1]; entire cohort, not significant (p=0.136; 0.057)): 9.14% | decrease in 180 min plasma glucose after treatment ([1]; remaining 16 subjects (subject #1 excluded), p=0.002, 0.003): 13.5% | increase of glucose at 180 minutes ([1]; single outlier (subject #1)): 58.6% | fasting glucose level post-treatment ([1]; subject #1 (A1c 6.2%), decreased from 123.8): 116.3 mg/dL | 180 min glucose level post-treatment ([1]; subject #1 (A1c 6.2%), decreased from 200.0): 184.5 mg/dL | 180 min glucose level post-treatment ([1]; subject #2 (A1c 6.1%), from 88.3): 69 mg/dL | 180 min glucose level post-treatment ([1]; subject #3 (A1c 6.0%), from 146): 119 mg/dL | average decrease of fasting glucose ([1]; subjects with HbA1c≥5.6%, Day 21 vs Day 0, p=0.128, p=0.22): 4.25 mg/dL | median decrease of glucose levels at 180 minutes ([1]; subset of 12 subjects, Day 21): 25.3% | average decrease of glucose levels at 180 minutes ([1]; subset of 12 subjects, Day 21, p<0.001): 21.7% | AUC insulin ([2]; All (n = 17), D0 24963): 26834 | AUC insulin ([2]; FPG <100 mg/dL (n = 8), D0 22215): 27461 | AUC insulin ([2]; FPG >100 mg/dL (n = 9), D0 27405): 26275 | AUC insulin ([2]; High A1c (n = 9), D0 27055): 25988 | AUC insulin ([2]; Low A1c (n = 8), D0 22609): 27785 | Fasting insulin ([2]; All (n = 17), D0 26.082): 25.894 μU/mL | Fasting insulin ([2]; FPG <100 mg/dL (n = 8), D0 20.212): 20.95 μU/mL | Fasting insulin ([2]; FPG >100 mg/dL (n = 9), D0 31.3): 30.289 μU/mL | Fasting insulin ([2]; High A1c (n = 9), D0 30.411): 28.9 μU/mL | Fasting insulin ([2]; Low A1c (n = 8), D0 21.212): 22.512 μU/mL | decrease of fasting insulin ([2]; all 17 subjects, p=0.916, p=0.963): 0.7 μU/mL | decrease of median insulin area under the curve (AUC) ([2]; high A1c group, not statistically significant): 1663.5 | decrease of fasting insulin ([2]; high A1c group, p=0.916, p=0.963): 0.84 μU/mL | decrease of fasting insulin ([2]; high fasting plasma glucose group, p=0.752, p=0.855): 2.97 μU/mL | increase of median insulin area under the curve (AUC) ([2]; low A1c group, not statistically significant): 3380.25 | decrease of fasting insulin ([2]; remaining 16 subjects (subject #1 excluded), p=0.007, 0.009): 13.4% | average fasting insulin post-treatment ([2]; subject #1, outlier in the high A1c group, increased from 77.45 pre-treatment): 96.15 μU/mL | median decrease of fasting insulin ([2]; subset of 8 subjects (#2-4, 8-11, and 13)): 42.5% | decrease of mean fasting insulin ([2]; subset of 8 subjects (#2-4, 8-11, and 13), p=0.004, p=0.008): 37.8% | tolerability of daily oral DEA ([3]; 17 subjects, 21 daily oral doses of 1 mg/kg, 1 mg/kg): well tolerated by all study subjects | Hypoglycemia ([3]; 21-day study): Neither metformin nor DEA administration as presented herein induced hypoglycemia; also recorded: no effect | Side effects ([3]; 21-day study): mild transient diarrhea (1/17 subjects) | adverse effects ([3]; first week of treatment, no other adverse effects reported): only one subject experienced transient mild diarrhea | improvement in plasma glucose levels, buccal relative to gastric delivery ([4]; at 0 hour and 4 hours after 75 grams of glucose in OGTT, FIG. 17, T test): significantly significant greater improvement | plasma glucose levels during OGTT ([4]; buccal delivery vs 0 mg/kg, more pronounced at 0.5 mg/kg): lowered (i.e., improved) plasma glucose levels at most tested DEA dosages and post-glucose ingestion time points | plasma glucose concentrations during OGTT ([4]; buccal, 0.5-4 mg/kg vs 0, 0, 1, 2, 4 hours after 75 grams of glucose, FIG. 10, most pronounced at 0.5 and 1 mg/kg): lowered (improved) plasma glucose levels | plasma glucose concentrations during fasting OGTT ([4]; buccal, 0.5-4 mg/kg vs 0, FIG. 11, most pronounced at 0.5 and 1 mg/kg): lowered (improved) plasma glucose levels | plasma glucose concentrations during OGTT at 1 hour ([4]; buccal, 0.5-4 mg/kg vs 0, FIG. 12, most pronounced at 0.5 mg/kg): lowered (improved) plasma glucose levels in the setting of OGTT at all DEA dosage amounts | plasma glucose concentrations during OGTT at 2 hours ([4]; buccal, 0.5-4 mg/kg vs 0, FIG. 13, most pronounced at 0.5 and 1 mg/kg): lowered (improved) plasma glucose levels in the setting of OGTT at all DEA dosage amounts | plasma glucose concentrations during OGTT at 4 hours ([4]; buccal, 0.5-4 mg/kg vs 0, FIG. 14): lowered (improved) plasma glucose levels in the setting of OGTT at the 0.5 mg/kg, 1 mg/kg, and 4 mg/kg DEA dosage amounts | plasma glucose levels during OGTT ([4]; gastric delivery vs 0 mg/kg, more pronounced at 0.25 mg/kg): lowered (i.e., improved) plasma glucose levels at most tested DEA dosages and post-glucose ingestion time points
